The values that follow come from a melting point compilation (Tetko et al.; mined from patent text by program, amines drawn as free bases though some values may be those of a salt).

The melting point is the temperature, or range, at which the solid turns liquid.

Non-standard residues stand in square brackets, D forms with d. Residues, ends and D or L forms follow the SMILES beside them. ξ: configuration not given here. *: point of attachment. Boc = CC(C)(C)OC(=O)*; ξA = CC(N)C(=O)O; NHNH2 = NN*

Turning to `COc1cc2c(cc1Nc1ncc(Cl)c(Nc3ccc(N4CCOCC4)cc3OC)n1)CCN(CC(=O)OC(C)C)CC2`, the melting point is 70 to 80 °C. The same measure for `CCCCCCCSc1nn2c(=O)c(C)c(F)nc2s1`: 78 to 91 °C; for `CCc1nc2c(N)nc3ccccc3c2n1CC1(O)CCCC1`: 210 °C.

With `O=C(CCCCCOc1ccc([N+](=O)[O-])cc1)OCCOCCOC(=O)CCCCCOc1ccc([N+](=O)[O-])cc1`, the melting point is 60 to 62 °C.

With `C#Cc1cc2ncc(C#N)c(Nc3cc(OC)c(Cl)cc3Cl)c2s1`, the melting point lay in the range of 198 to 200 °C. The same measure for `CCCCNc1nc(N)nc2c1ncn2C1CC(N=[N+]=[N-])C(CO)O1` (configuration not stated): 44 to 47 °C.

Consider `CCCCCCCCCCCCC(=O)/C=C/C(=O)O`, for which the melting point lay in the range of 97.5 to 98.5 °C. The same measure for `CCC(=C(N)N)[N+](=O)[O-]`: 114 to 116 °C; for `NC(=O)c1[nH]c2cccnc2c1Sc1ccc(Cl)cc1Cl`: 266 °C; for `Cc1cc(C(=O)OC(CC(C)C)C(=O)O)cc(C)n1` (racemic): 95 to 96 °C. The same measure for `C[C@@](O)(C(=O)Nc1ccc(S(=O)(=O)c2ccccc2)cc1F)C(F)(F)F`: 121 to 122 °C.

In turn, `N#CC1=C(Nc2ccc(F)cc2)CCC1` showed a melting point of 100 to 102 °C. The same measure for `COCCOc1cc(N)c(S(C)(=O)=O)cc1[N+](=O)[O-]`: 166 to 167 °C; for `Clc1cc2c(cc1Cl)OCCO2`: 147 to 148 °C; for `CC(C)Oc1cccc(OC(=O)NCc2c(-c3ccccc3)c3cc(Cl)ccc3c(=O)n2C)c1`: 158 to 160 °C.

Regarding `CCC(CC)c1cccc(C[C@H]2C(=O)O[C@H](c3ccccc3)[C@H](c3ccccc3)N2C(=O)OC(C)(C)C)c1`, the melting point fell in the range of 143 to 144 °C.

In the case of `C=CCOc1ccc(C(=O)CC(=O)C(C)(C)C)cc1OC`, the melting point was 40 °C.

Molecule `CCCCC#CCCOc1cc(/C=C/C(=O)Nc2ccccc2C(=O)O)ccc1OC` gave a melting point of 157 to 158 °C. To `CN(C)c1ccc2nc[nH]c(=O)c2c1` belongs 233 to 236 °C; to `COc1cn(C)c(=O)c(OS(=O)(=O)C(F)(F)F)n1`, 107 to 108 °C; to `CCOC(=O)C(O)=Cc1ncc(CCc2ccc(F)cc2)cn1`, 133 to 134 °C. The same measure for `CCCCCCCCCCCCCCCC(=O)c1c(Br)cc(OC)c(OC)c1C(=O)NC[C@@H]1CCCN1CC`: 46 to 48 °C; for `O=C(c1cccc(Cl)c1)c1cccc(Cl)c1`: 117 °C; for `CCc1c(C(=O)c2cc(C)cc(C)c2)n(CC=CC(=O)OC)c(=O)[nH]c1=O`: 201 to 202 °C. To `CC(NC(=O)CNC(=O)CNC(=O)CNC(=O)OC(C)(C)C)C(=O)NCC(=O)NN` (configuration not stated) (Boc-GGG[ξA]G-NHNH2) belongs 221 to 223 °C; to `Cc1cnc(N2CCN(C(=O)OC(C)(C)C)CC2)c2ccoc12`, 108 °C; to `COc1ccc(C2c3c(C)c(N4CCC(c5ccc(OC)c(OC)c5)CC4)c(C)c(C)c3OC2(C)C)cc1` (configuration not stated), 154 to 156 °C.

For `S=C(NC1CCCCC1)N1CCN(c2cnccn2)CC1`, the melting point was 176 to 178 °C. The same measure for `O=C1c2ccccc2C(O)(c2ccccc2)N1CC(c1ccccc1)c1ccccc1` (configuration not stated): 230 °C; for `O=[N+]([O-])c1ccc(O)c(COCCO)c1`: 132 °C. Turning to `CCCCCCCCCC(O)CNCCCNCC(O)CCCCCCCCC` (configuration not stated), the melting point was 94 to 103 °C. `CC(C)C(NC(=O)CCc1ccccn1)C(=O)NC(Cc1ccccc1)C(O)C(Cc1ccccc1)NC(=O)C(NC(=O)CCc1ccccn1)C(C)C` (configuration not stated) gave a melting point of 216 to 218 °C. The same measure for `CCCOc1ccccc1-c1nc2c(C=CCc3ccccc3)cccc2c(=O)[nH]1`: 123 to 126 °C; for `Cc1ccc(-c2cccc(/C=C/C(=O)Nc3ccc(-c4cccnc4)cc3)c2)cc1`: 213 to 214 °C; for `O=C(O)c1ccc(OCCN2CCOCC2)cc1`: 112 to 114 °C.

The molecule `CCOc1ccccc1C=[N+]([O-])C1CCCC1` registered a melting point of 87.3 °C. The same measure for `COc1cc(OC)c([N+](=O)[O-])c(OC)c1NC=O`: 98 °C; for `CC(=O)OCc1ccc(-c2ccccc2)cn1`: 71 to 72 °C; for `CCCCCCCCCCC1COC(=O)N1C(C)=O` (configuration not stated): 51 to 53 °C.

On to `CC(NC(Nc1cccnc1)=C(C#N)S(=O)(=O)c1ccc(Cl)cc1)C(C)(C)C` (configuration not stated), for which the melting point was 172 to 174 °C. The same measure for `CC(=O)Nc1nc(O)c2cc(C=C(C)c3ccc(C(=O)O)cc3)cnc2n1`: above 250 °C; for `Nc1ncc(-c2cccc3ccc(Br)cc23)o1`: 189 to 190 °C. The same measure for `CCOC(=O)c1cc(-c2nnnn2C)c(-c2ccc(F)cc2)s1`: 132 to 133 °C. To `O=C(Nc1cccc(S(=O)(=O)N2CCOCC2)c1)c1cnn2c(C(F)F)cc(-c3ccc(Cl)c(Cl)c3)nc12` belongs 231 °C; to `CCOc1cccc2oc(-c3ccccc3)cc(=O)c12`, 111 to 113 °C. Consider `CCCC[C@H]1CC[C@H](OC(=O)c2cc(Sc3ccc(C)cc3)c3c(c2N)C(=O)c2ccccc2C3=O)CC1`, for which the melting point fell in the range of 176 to 177 °C.

Take `Cc1nnc(C=Cc2ccccc2OCC(O)CNC(C)(C)C)s1` (configuration not stated): the melting point fell in the range of 110 to 112 °C.

Take `Cc1cc(-n2c(C)ccc2C)c(C)cc1N=CN(C)C`: the melting point was in the range of 90 to 91 °C.

For `CC1OC(=O)C(C)C(NC(=O)OCc2ccccc2)C1C(=O)OCc1ccccc1` (configuration not stated), the melting point was 110 to 112 °C. The same measure for `O=C1CCC2=C(CCc3cc(Cl)cc(Cl)c32)N1`: 212 to 214 °C; for `Cc1nc2ccnn2c2c1CCN2C(C)(C)C`: 144 to 146 °C; for `CCOC(=O)COc1ccc(C(=O)[C@@H](NC(=O)c2ccc(C(=N)NC(=O)OC(C)(C)C)cc2)[C@@H](C)OC(C)(C)C)cc1`: 95 to 97 °C.

Turning to `COc1cc2c(cc1Nc1ncc(Cl)c(N[C@@H]3CCCC[C@H]3NS(C)(=O)=O)n1)CCN(CCNC(C)=O)CC2`, the melting point is 108 to 118 °C.

`CCNC(=Nc1ccccc1N1CCOCC1)NC`: the melting point lay within 118 to 119 °C. To `CC(C)(C)c1cccc(S(=O)(=O)n2c(Cc3ccc(C(=O)NS(=O)(=O)c4ccccc4)cc3)cc3cc(C(F)(F)F)ccc32)c1` belongs 99 °C; to `CC1(C)Cc2sccc2C(NC(N)=O)C1` (configuration not stated), 174 to 178 °C; to `COc1ccc2cnc(Nc3ccccc3)nc2c1C(C)C`, 172 to 173 °C.

`Cn1nc(CC2CC2)c2sc(Cc3cccc(C(F)(F)F)c3)c(O)c2c1=O` had a melting point of 92 to 93 °C. The same measure for `CC(C)(O)c1cc(OCc2ccccc2)cc(C(C)(C)O)c1`: 146 to 147 °C; for `O=C(Oc1ccc2c(OC(=O)c3ccc(O)c(Cl)c3)c3ccccc3cc2c1OC(=O)c1ccc(O)c(Cl)c1)c1ccc(O)c(Cl)c1`: 238 °C. The same measure for `OC1(c2cccc(Cl)c2)C2=NCCCN2c2ccccc21` (configuration not stated): 186 to 187 °C; for `COc1cccc(Nc2c([N+](=O)[O-])cc(C(=O)O)cc2S(N)(=O)=O)c1`: 253 to 254 °C.
